We go through 8 compounds from patent US10195156B2, “Compounds and compositions for intracellular delivery of agents” (ModernaTX, Inc., priority 2015, dated 2019).

Each structure is given as a SMILES string.

Data set [1] is described as follows: Particle size and polydispersity index of nanoparticle compositions (Zetasizer Nano ZS). It is filed as physicochemical. A digest of the protocol:
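Values are size and PDI readings from a Zetasizer Nano ZS. Measurements are taken in 1×PBS; zeta potential, by contrast, uses 15 mM PBS.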

Data set [2] in a line: Lipid clearance: % dose remaining in mouse liver 6 h and 24 h after administration of nanoparticle compositions. The following applies: Table 7c. It is filed as in vivo, CD-1 mice. The source says:
(§1) In contrast, hEPO expression in rats induced by administration of a nanoparticle composition including a compound according to one of formulae (I), (Ia1)-(Ia6), (Ib), (II), (IIa), (III), and (IIIa) was substantially […] than that measured for MC3. […] Table 7c and 7d show additional protein expressions and clearance data from compositions with various compounds disclosed herein as compared to with MC3.

Another data set concerns Luc expression. In words: Luc expression in CD-1 mice (AUC relative to MC3). The data set is classed as in vivo. The settings on record: Table 7c. How it is done: FIG. 15 is a graph summarizing luciferase expression levels at 6 h after administration of nanoparticle compositions containing compounds of the disclosure to CD-1 mice at a dose of 0.5 mpk. Total light flux values were acquired via body luminescent imaging (BLI) 6 h after administration. In this Figure, the numbers 1-7 and 10 refer to the compositions containing Compounds 4-10 and MC3 respectively.
as §1

The nature of data set [3]: Encapsulation efficiency of RNA (QUANT-IT RIBOGREEN RNA assay). The data set is classed as physicochemical. A digest of the protocol: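 RiboGreen fluorescence (ex ~480, em ~520 nm) measured after 15 min at 37 °C on samples at ~5 μg/mL in TE, pH 7.5, ± 2% Triton X-100 solution. After blank subtraction, free RNA is given as intact-sample signal divided by disrupted-sample signal.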

The test system of a further data set is IL-6. In words: Cytokine production induced by sample formulations: IL-6. It is filed as in vivo. The settings on record: mice, i.v., 0.5 mpk, 6 hours; for IL-6: Table 20-4, formula (20-I), in pg/mL (unit assumed). A digest of the protocol:
(§2)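 Cytokine levels were quantified at 6 hours in mice given the nanoparticle compositions i.v. at 0.5 mpk. MC3 standard formulation and PBS served as comparators.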

The nature of data set [4]: pKa of nanoparticle compositions. The settings on record: Table 20-1. The data set is classed as physicochemical.
The subject of data set [5] is modified luciferase (Luc) expression. The experiment in a line: Expression upon intramuscular administration of Luc mRNA and H10 mRNA formulations. The settings on record: 6 hours after intramuscular administration. It is filed as in vivo. On the procedure: Sample formulations including both modified luciferase (Luc) mRNA and H10 mRNA were prepared and administered intramuscularly at day 1 and day 21 and the resulting expression and immunogenicity were evaluated simultaneously. Formulations including compounds according to formula (20-I) were prepared and administered at doses of 0.001 and 0.01 mpk (e.g., doses of 0.0005 mpk of a formulation including Luc mRNA and a formulation including H10 mRNA or doses of 0.005 mpk of a formulation including Luc mRNA and a formulation including H10 mRNA). As shown in Table 20-4, the total flux was higher upon administration of the second dose for each composition and at each dose level. Total flux was higher for the higher dose level.

For the next data set, the system named is IP-10. In words: Cytokine production induced by sample formulations: IP-10. It is filed as in vivo. The following applies: mice, i.v., 0.5 mpk, 6 hours; for IP-10: Table 20-4, formula (20-I), in pg/mL (unit assumed). A digest of the protocol: as §2
For data set [6], the system named is luciferase (Luc) mRNA expression. The experiment in a line: Expression of Luc induced by sample formulations, whole-body bioluminescence after intravenous administration. It is filed as in vivo. The following applies: mice, i.v., 0.5 mg/kg; for Total Flux 3 hours / Total Flux 6 hours / Total Flux 24 hours: Table 20-2. A digest of the protocol:
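Read-out is whole-body bioluminescence at 3, 6 and 24 h after a single intravenous dose of 0.5 mg/kg Luc mRNA in nanoparticle formulations. Groups of n=6 mice; PBS and standard MC3 formulation as references.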

Data set [7] relates to modified luciferase expression. In words: Expression of Luc in different organs (liver, lung, spleen, femur) 6 hours after intravenous administration. It is filed as in vivo. The following applies: Table 20-3, mice, i.v., 0.5 mpk. On the procedure: The efficacy of the nanoparticle compositions presented in Tables 1, 1a, 17-1, 19-1, 20-1 and 21-1 was further evaluated by measuring the expression of modified luciferase in the liver, lung, spleen, and femur upon administration of a given composition. Formulations were administered intravenously to mice (n=3) at a dosage of 0.5 mpk and bioluminescence measured after 6 hours. The standard MC3 formulation and a PBS control were also tested.

Another data set relates to hEPO mRNA expression. In words: Expression of hEPO in CD-1 mice. It is filed as in vivo. The following applies: Table 7e; hEPO expression, CD-1 mice, 0.5 mpk. The source says: FIG. 12 is a set of graphs illustrating hEPO expression levels in CD-1 mice dosed with compounds of the disclosure, compared to MC3. PBS is used as control. […] In graphs A-C numbers 1-14 refer to compositions containing the following: 1: Compound 73, 2: Compound 80, 3: Compound 70; 4: Compound 81; 5: Compound 69; 6: Compound 82; 7: Compound 83; 8: Compound 62; 9: Compound 84; 10: Compound 85; 11: Compound 86; 12: Compound 87; 13: MC3; 14: PBS.
FIG. 13 is a graph showing hEPO levels (pg/mL) in CD-1 mice up to ˜25 h after administration of a nanoparticle composition containing compounds of the disclosure, compared to a composition containing MC3. Numbers 1-13 refer to compositions containing the following: 1: Compound 73, 2: Compound 80, 3: Compound 70; 4: Compound 81; 5: Compound 69; 6: Compound 82; 7: Compound 83; 8: Compound 62; 9: Compound 84; 10: Compound 85; 11: Compound 86; 12: Compound 87; 13: MC3. […]

The mark [8] stands for this setting: Table 20-1, * formulated with DOPE.
Where [9] appears, read: Table 20-1, rows without footnote mark.

Regarding `CCCCCCCCCN(CCCCCCCCC)CCN(CCCCCCCCC)CC(=O)N1CCN(C(=O)CN(CCCCCCCCC)CCCOC(=O)CCCCC)CC1` [Compound 56, 3-((2-(4-(N-(2-(Dinonylamino)ethyl)-N-nonylglycyl)piperazin-1-yl)-2-oxoethyl)(nonyl)amino)propyl Hexanoate], in data set [1] (Table 1b), the PDI is given as 0.24 and the “Size (nm)” value is reported as 117.4 nm. Moreover, in data set [2], the “% Dose Remaining 6 hr” value turned out to be 1.21% and the “% Dose Remaining 24 hr” value is reported as 0.16%. In the data set with Luc expression, the “AUC (p/s*h)” value turned out to be 1.77E+11 p/s*h. Besides, the “EE (%)” value in data set [3] (Table 1b) was determined as 99.0%.

Regarding `CCCCCCCCCN(CCCOC(=O)CCCCC)CCC1CCN(C(=O)CN(CCCCCCCCC)CCN(CCCCCCCCC)CCCCCCCCC)CC1` [Compound 61, 3-((2-(1-(N-(2-(Dinonylamino)ethyl)-N-nonylglycyl)piperidin-4-yl)ethyl)(nonyl)amino)propyl hexanoate], in [1] (Table 1b), the PDI amounted to 0.23 and the “Size (nm)” value is on record as 86.8 nm. Also, in data set [2], the “% Dose Remaining 6 hr” value came out at 1.31% and the “% Dose Remaining 24 hr” value is reported as 0.13%. Also, the “AUC (p/s*h)” value in the data set on Luc expression is on record as 4.65E+11 p/s*h. The “EE (%)” value in [3] (Table 1b) is 99.1%.

`CCCCCCCCCCCCN(CCCCCCCCCCCC)CCN(CCCCCCCCCCCC)CC(=O)O` [Compound 20-1, N-(2-(Didodecylamino)ethyl)-N-dodecylglycine]: in data set [1] (setting [8]), the PDI is 0.078 and the “Size (nm)” value amounted to 87.8 nm. Also, the IL-6 with IL-6 is 62.4. This compound showed a pKa in [4] (* formulated with DOPE) of 4.48. For the same compound, in [5], the “Total flux (p/s) 0.001 mpk Dose 1” value was 3.50E+05 p/s, the “Total flux (p/s) 0.001 mpk Dose 2” value stood at 1.99E+06 p/s, the “Total flux (p/s) 0.01 mpk Dose 1” value is given as 3.16E+06 p/s and the “Total flux (p/s) 0.01 mpk Dose 2” value came out at 1.04E+07 p/s. The same compound had an IP-10 in the data set on IP-10 of 2065.8. Further, in data set [6] (3 hours), the “Total Flux 3 hours” value turned out to be 1.44E+06. Moreover, in data set [6], the “Total Flux 6 hours” value came out at 8.30E+05; the “Total Flux 24 hours” value was 4.53E+05; the “total flux after 24 hours, rank within the named table (in words)” value is on record as “lowest”. Also, in [7], the “Total Flux Liver” value is listed as 3.19E+05, the “Total Flux Lung” value is recorded as 3.79E+04 and the “Total Flux Spleen” value amounted to 1.70E+05. Further, the “EE (%)” value in data set [3] (setting [8]) is 90.7%.

For the compound `CCCCCCCCCCCCN(CCO)CCN(CCCCCC(=O)OCCCCC)CCCCCC(=O)OCCCCC` [Compound 20-4, Dipentyl 6,6′-((2-(dodecyl(2-hydroxyethyl)amino)ethyl)azanediyl)dihexanoate], in data set [1] (setting [9]), the PDI is recorded as 0.160 and the “Size (nm)” value was 82.1 nm. In the data set with IL-6, this compound yielded an IL-6 of 169.3. This compound yielded a pKa in data set [4] (rows without footnote mark) of 6.86. In addition, in [5], the “Total flux (p/s) 0.001 mpk Dose 1” value worked out at 1.04E+06 p/s and the “Total flux (p/s) 0.01 mpk Dose 1” value amounted to 9.46E+06 p/s. In the data set with IP-10, this compound had an IP-10 of 270.5. Further, the “Total Flux 3 hours” value in [6] (3 hours) is listed as 3.01E+06. Also, in data set [6], the “Total Flux 6 hours” value was found to be 1.75E+06 and the “Total Flux 24 hours” value came to 6.82E+08. The “Total Flux Femur” value in data set [7] (femur) was determined as 2.09E+04. In addition, in data set [7], the “Total Flux Liver” value came to 2.93E+05, the “Total Flux Lung” value is 1.11E+04 and the “Total Flux Spleen” value came out at 4.51E+04. Also, in data set [3] (setting [9]), the “EE (%)” value was found to be 91.3%.

`CCCCCCCCCN(CCCC(=O)OCCCCC)CCC1CCN(C(=O)CN(CCCCCCCCC)CCN(CCCCCCCCC)CCCCCCCCC)C1` (stereo not shown) [Compound 81, Pentyl 4-((2-(1-(N-(2-(dinonylamino)ethyl)-N-nonylglycyl)pyrrolidin-3-yl)ethyl)(nonyl)amino)butanoate]: the “AUC (p/s*h) CD-1 mice 0.5 mpk” value in the data set on hEPO mRNA expression is reported as 1.08E+8 p/s*h. Further, in data set [1] (Table 1b), the PDI was 0.17 and the “Size (nm)” value is listed as 65.3 nm. In addition, in data set [3] (Table 1b), the “EE (%)” value is given as 99.27%.

In the case of `CCCCCCCCCN(CCCCCCCCC)CCN(CCO)CCCCCC(=O)OCCCCC` [Compound 20-6, Pentyl 6-((2-(dinonylamino)ethyl)(2-hydroxyethyl)amino)hexanoate], in data set [1] (setting [9]), the PDI was 0.220 and the “Size (nm)” value is 82.5 nm. In addition, in the data set with IL-6, the IL-6 is on record as 0 and the “IL-6 induction, rank within the named table (in words)” value is “lowest”. Besides, the pKa in data set [4] (rows without footnote mark) was 6.73. Further, in [5], the “Total flux (p/s) 0.001 mpk Dose 1” value is on record as 8.57E+05 p/s, the “Total flux (p/s) 0.001 mpk Dose 2” value came to 9.79E+05 p/s, the “Total flux (p/s) 0.01 mpk Dose 1” value was 3.41E+06 p/s and the “Total flux (p/s) 0.01 mpk Dose 2” value is 6.04E+06 p/s. In the data set with IP-10, the IP-10 worked out at 25.3 and the “IP-10 induction, rank or comparison with IL-6 (in words)” value is reported as “lowest”. In addition, in data set [6] (3 hours), the “Total Flux 3 hours” value was found to be 3.39E+10 and the “total flux after 3 hours, rank within the named table (in words)” value is recorded as “highest after 3 hours”. In [6], the “Total Flux 6 hours” value is listed as 5.44E+06; the “Total Flux 24 hours” value is 5.48E+05; the “total flux after 24 hours, rank within the named table (in words)” value is reported as “lowest”. Moreover, in [7], the “Total Flux Liver” value amounted to 7.75E+05, the “Total Flux Lung” value stood at 2.32E+04 and the “Total Flux Spleen” value stood at 2.35E+05. For the same compound, in data set [3] (setting [9]), the “EE (%)” value is reported as 94.7%.

Regarding `CCCCCCCCCN(CCCC(=O)OCCCCC)CCC(=O)N1CCN(C(=O)CCN(CCCCCCCCC)CCN(CCCCCCCCC)CCCCCCCCC)CC1` [Compound 62, Pentyl 4-((3-(4-(3-((2-(dinonylamino)ethyl)(nonyl)amino)propanoyl)piperazin-1-yl)-3-oxopropyl)(nonyl)amino)butanoate], in the data set with hEPO mRNA expression, the “AUC (p/s*h) CD-1 mice 0.5 mpk” value is given as 3.46E+7 p/s*h. Moreover, in data set [1] (Table 1b), the PDI amounted to 0.18 and the “Size (nm)” value is on record as 61.7 nm. Besides, in data set [3] (Table 1b), the “EE (%)” value came out at 97.73%.

With `CCCCCCCCCN(CCCCCCCCC)CCN(CCCCCCCCC)CC(=O)N1CCC(CN(CCCCCCCCC)CCCC(=O)OCCCCC)C1` (stereo not shown) [Compound 82, Pentyl 4-(((1-(N-(2-(dinonylamino)ethyl)-N-nonylglycyl)pyrrolidin-3-yl)methyl)(nonyl)amino)butanoate], the “AUC (p/s*h) CD-1 mice 0.5 mpk” value in the data set with hEPO mRNA expression was determined as 1.29E+8 p/s*h. Further, in [1] (Table 1b), the PDI was determined as 0.24 and the “Size (nm)” value came to 76.1 nm. Also, in data set [3] (Table 1b), the “EE (%)” value turned out to be 99.23%.

Broadly, the pKa is the pH at which an ionisable group is half protonated.
